We go through twelve compounds from patent US20230219962A1, “PYRAZOLO[4,3-d]PYRIMIDINE DERIVATIVES AND METHODS OF USE THEREOF FOR THE TREATMENT OF CELLULAR PROLIFERATIVE DISORDERS” (Merck Sharp & Dohme LLC, priority 2020, published 2023).

The target in assay [1] is T1, hTLR8 (Homo sapiens, UniProt Q9NR97).
T1 construct: host or cells: HEK-Blue hTLR8 cells (HEK293-derived, own knowledge)
T1 sequence (Q9NR97 27-1041): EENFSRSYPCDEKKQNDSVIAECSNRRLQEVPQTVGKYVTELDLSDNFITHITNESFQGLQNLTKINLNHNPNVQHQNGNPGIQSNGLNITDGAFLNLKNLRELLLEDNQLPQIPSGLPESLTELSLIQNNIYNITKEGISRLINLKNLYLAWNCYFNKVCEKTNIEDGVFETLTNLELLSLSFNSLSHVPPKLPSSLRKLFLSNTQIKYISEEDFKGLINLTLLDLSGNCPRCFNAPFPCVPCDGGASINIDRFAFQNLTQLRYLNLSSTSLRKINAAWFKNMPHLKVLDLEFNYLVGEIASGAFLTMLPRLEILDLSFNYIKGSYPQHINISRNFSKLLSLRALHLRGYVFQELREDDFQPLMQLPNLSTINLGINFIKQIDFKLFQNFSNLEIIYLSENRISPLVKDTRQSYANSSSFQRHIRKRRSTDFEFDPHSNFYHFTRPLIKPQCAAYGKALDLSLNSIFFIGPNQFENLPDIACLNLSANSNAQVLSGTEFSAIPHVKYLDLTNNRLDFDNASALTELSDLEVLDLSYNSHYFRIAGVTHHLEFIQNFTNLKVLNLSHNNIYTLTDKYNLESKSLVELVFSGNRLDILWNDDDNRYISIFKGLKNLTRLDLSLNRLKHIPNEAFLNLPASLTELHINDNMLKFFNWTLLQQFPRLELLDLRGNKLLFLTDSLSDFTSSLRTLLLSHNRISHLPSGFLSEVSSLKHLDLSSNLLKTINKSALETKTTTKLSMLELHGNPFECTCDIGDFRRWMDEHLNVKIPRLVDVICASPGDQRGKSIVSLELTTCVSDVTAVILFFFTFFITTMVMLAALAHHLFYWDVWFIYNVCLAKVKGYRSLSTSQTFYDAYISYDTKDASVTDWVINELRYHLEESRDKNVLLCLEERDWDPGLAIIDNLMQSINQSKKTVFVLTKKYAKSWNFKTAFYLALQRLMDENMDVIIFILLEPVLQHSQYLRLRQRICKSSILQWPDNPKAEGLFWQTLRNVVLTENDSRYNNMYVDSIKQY
Kind of assay: Human TLR8 Reporter Assay. Type of assay: cell-based. To be noted: HEK-Blue hTLR8 cells, 16 hours, normalized to tl8-506 (1 μM) and DMSO. The method, boiled down: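 HEK-Blue hTLR8 cells (20,000/well) incubated 16 h at 37 °C with 10-point 3-fold compound dilutions in HEK-Blue Detection medium; reporter read as absorbance at 620 nm. Effects normalized between DMSO and tl8-506 (1 μM); EC50 from 4-parameter fit.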

Assay [2] deals with T2, hTLR7 (Homo sapiens, UniProt Q9NYK1).
T2 construct: host or cells: HEK-Blue hTLR7 cells (HEK293-derived, own knowledge)
T2 sequence (Q9NYK1 27-1049): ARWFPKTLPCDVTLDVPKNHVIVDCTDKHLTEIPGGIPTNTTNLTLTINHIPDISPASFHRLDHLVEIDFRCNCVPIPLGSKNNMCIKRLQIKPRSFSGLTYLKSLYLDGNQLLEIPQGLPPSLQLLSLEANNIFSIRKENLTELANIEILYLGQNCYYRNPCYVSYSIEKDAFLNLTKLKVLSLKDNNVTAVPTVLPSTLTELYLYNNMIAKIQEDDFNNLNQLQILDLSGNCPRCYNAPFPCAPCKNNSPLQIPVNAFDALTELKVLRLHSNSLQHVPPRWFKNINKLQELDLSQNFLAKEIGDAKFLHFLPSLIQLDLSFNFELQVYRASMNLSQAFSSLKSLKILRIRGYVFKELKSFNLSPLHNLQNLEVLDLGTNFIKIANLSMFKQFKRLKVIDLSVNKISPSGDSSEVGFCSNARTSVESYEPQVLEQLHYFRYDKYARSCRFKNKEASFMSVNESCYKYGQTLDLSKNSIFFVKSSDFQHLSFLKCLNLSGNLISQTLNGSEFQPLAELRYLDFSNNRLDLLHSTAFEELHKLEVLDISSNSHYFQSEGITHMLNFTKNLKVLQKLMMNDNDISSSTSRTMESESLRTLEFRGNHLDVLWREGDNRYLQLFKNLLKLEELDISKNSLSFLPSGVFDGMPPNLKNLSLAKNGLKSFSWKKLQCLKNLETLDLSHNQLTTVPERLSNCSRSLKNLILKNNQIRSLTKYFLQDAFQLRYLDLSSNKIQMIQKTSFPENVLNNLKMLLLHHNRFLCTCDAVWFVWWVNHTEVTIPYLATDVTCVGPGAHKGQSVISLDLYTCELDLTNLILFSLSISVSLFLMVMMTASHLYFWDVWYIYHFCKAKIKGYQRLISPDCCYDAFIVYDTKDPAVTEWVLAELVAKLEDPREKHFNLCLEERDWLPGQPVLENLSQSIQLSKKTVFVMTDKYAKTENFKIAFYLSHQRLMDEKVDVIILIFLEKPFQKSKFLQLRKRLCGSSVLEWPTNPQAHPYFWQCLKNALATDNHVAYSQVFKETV
As to the kind of experiment: Human TLR7 Reporter Assay. Format: cell-based. To be noted: HEK-Blue hTLR7 cells, 16 hours, normalized to CL097 (6 μM) and DMSO. The method, boiled down:
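HEK-Blue hTLR7 reporter cells (20,000/well) incubated 16 h at 37 °C with 10-point 3-fold compound dilutions; SEAP read by absorbance at 620 nm. Effects normalized between CL097 (6 μM) and DMSO controls; EC50 from 4-parameter fit.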
(Reporter assays use an easily measured gene product as a stand-in for the process of interest.)

pEC50: −log10 of the molar value.

Turning to `CCCCNc1nc(N)nc2cn(Cc3c(OC)cc(SC[C@H](N)C(=O)O)cc3OC)nc12` [Compound 230], the pEC50 was 5.05 in assay [1] and 6.05 in assay [2].

Turning to `CCCNC(C)c1ccc(Cn2cc3nc(N)nc(N[C@H](CO)CCC)c3n2)c(OC)c1` (stereo partly drawn) [Compound 231], the pEC50 in assay [1] was 7.31; in assay [2], 6.21.

Consider `CCCNC(C)c1ccc(Cn2cc3nc(N)nc(N[C@H](CO)CCC)c3n2)c(OC)c1` (stereo partly drawn) [Compound 232], for which the negative logarithm of the EC50 (pEC50) in assay [1] is 7.11; in assay [2] it was 6.44.

Consider `CCCCNc1nc(N)nc2cn(Cc3ccc(C(C)N(C)CCC)cc3OC)nc12` (stereo not drawn) [Compound 233], for which the pEC50 in assay [1] was 6.34; in assay [2], 7.49.

Consider `CCCCNc1nc(N)nc2cn(Cc3ccc(C4CNCCN4)cc3OC)nc12` (stereo not drawn) [Compound 234], for which the figures for the pEC50 in assay [1] and in assay [2] were 5.01 and 5.83, respectively.

Turning to `CCCCNc1nc(N)nc2cn(Cc3ccc4c(c3)CCC4N)nc12` (stereo not drawn) [Compound 235], the pEC50 in assay [1] was 5.61; in assay [2], 6.44.

As to `CCCCNc1nc(N)nc2cn(Cc3ccc(C4CCCN4)cc3OC)nc12` (stereo not drawn) [Compound 236], the pEC50 in assay [1] is 5.54; in assay [2], 6.62.

As for `CCCCNc1nc(N)nc2cn(Cc3ccc(C4CCNC4)cc3OC)nc12` (stereo not drawn) [Compound 237], the pEC50 in assay [1] is 5.14; in assay [2], 6.21.

Regarding `CCCCNc1nc(N)nc2cn(Cc3ccc4c(c3)CCC4N)nc12` (stereo not drawn) [Compound 238], the results for the pEC50 in assay [1] and in assay [2] were 5.73 and 6.60, respectively.

Turning to `CCCCNc1nc(N)nc2cn(Cc3ccc(C4CCCN4)cc3OC)nc12` (stereo not drawn) [Compound 239], the negative-log EC50 (pEC50) was 5.59 in assay [1] and 6.81 in assay [2].

On to `CCCCNc1nc(N)nc2cn(Cc3ccc(C(C)N(C)CCC)cc3OC)nc12` (stereo not drawn) [Compound 240], for which the pEC50 in assay [1] is 5.96; in assay [2], 7.29.

As for `CCCCNc1nc(N)nc2cn(Cc3ccc(C(C)N(C)CCC)cc3OC)nc12` (stereo not drawn) [Compound 241], the pEC50 in assay [1] was 6.14; in assay [2], 7.44.

For orientation: pEC50 means the EC50 on a negative log10 scale, so that one unit is a factor of ten.
